From PMC7132281 (Proceedings of the National Academy of Sciences of the …, 2020)

Molecular target: T1, AtaC (Vnz_27310) (Streptomyces venezuelae, UniProt F2R7Z6, D269N)
T1 sequence (F2R7Z6 1-401 D269N): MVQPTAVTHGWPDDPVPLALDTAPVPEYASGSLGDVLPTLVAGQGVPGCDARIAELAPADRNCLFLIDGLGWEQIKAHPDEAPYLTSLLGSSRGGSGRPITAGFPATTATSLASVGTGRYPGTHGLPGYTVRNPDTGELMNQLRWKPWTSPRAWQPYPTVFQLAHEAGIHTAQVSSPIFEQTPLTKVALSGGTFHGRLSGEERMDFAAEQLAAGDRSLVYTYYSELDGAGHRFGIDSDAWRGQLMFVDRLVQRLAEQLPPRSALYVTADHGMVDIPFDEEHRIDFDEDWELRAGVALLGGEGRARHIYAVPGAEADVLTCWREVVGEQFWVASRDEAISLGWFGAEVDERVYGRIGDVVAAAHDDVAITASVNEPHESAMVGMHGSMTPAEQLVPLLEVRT
Assay: ITC
Assay type: binding

Question: Which Kd does the source give for `Nc1ncnc2c1ncn2[C@@H]1O[C@@H]2COP(=O)(O)O[C@H]3[C@@H](O)[C@H](n4cnc5c(N)ncnc54)O[C@@H]3COP(=O)(O)O[C@H]2[C@H]1O` [c-di-AMP] here?
Answer: 949 ± 360 nM
